# Source: US20230114728A1 (Venatorx Pharmaceuticals, Inc., priority 2019, published 2023)
# Experiments:
# Test in all cases: Broth microdilution MIC in CAMHB
# Assay type in all cases: cell-based
# E. coli AG100 = conditions: Escherichia coli; E. coli AG100 (wild-type parent); MHB; read-out: Minimum Inhibitory Concentration, E. coli AG100
# How it was run: (§1)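 Standard CLSI-style microdilution in cation-adjusted Mueller Hinton broth, 2-fold dilution series, incubated 16-20 h at 37° C; endpoint was visual absence of growth.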
# [1] = test system: K. pneumoniae 848844 producing SHV-11 and KPC-2; conditions: Klebsiella pneumoniae, read-out: Minimum Inhibitory Concentration, K. pneumoniae 848844
# How it was run: as §1
# [2] = test system: P. aeruginosa (ΔmexAB-oprM); conditions: Pseudomonas aeruginosa, read-out: Minimum Inhibitory Concentration, P. aeruginosa ΔmexAB-OprM
# How it was run: as §1
# P. aeruginosa ATCC 35151 = conditions: Pseudomonas aeruginosa, ATCC35151; MHB; hyper-permeable strain; read-out: Minimum Inhibitory Concentration, P. aeruginosa ATCC 35151
# How it was run: as §1
# [3] = test system: K. pneumoniae SI-117 producing VIM-1; conditions: Klebsiella pneumoniae, read-out: Minimum Inhibitory Concentration, K. pneumoniae SI-117
# How it was run: as §1
# E. coli 901C = conditions: Escherichia coli; E. coli 901C (hyper-permeable); MHB; read-out: Minimum Inhibitory Concentration, E. coli 901C
# How it was run: as §1
# A. baumannii ATCC 19606 = conditions: Acinetobacter baumannii, ATCC19606; MHB; read-out: Minimum Inhibitory Concentration, A. baumannii ATCC 19606
# How it was run: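 Hyper-permeable or efflux-deficient strains serve to probe outer-membrane penetration. Growth inhibition is scored visually after 16-20 h at 37° C in CAMHB, starting from 2-8×10^5 CFU/mL.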
# P. aeruginosa ATCC 27853 = conditions: Pseudomonas aeruginosa, ATCC27853; MHB; read-out: Minimum Inhibitory Concentration, P. aeruginosa ATCC 27853
# How it was run: as §1
# E. coli D22 = conditions: Escherichia coli; E. coli D22 (hyper-permeable); MHB; read-out: Minimum Inhibitory Concentration, E. coli D22
# How it was run: as §1
# [4] = test system: K. pneumoniae UMM producing SHV-5 and KPC-2; conditions: Klebsiella pneumoniae, read-out: Minimum Inhibitory Concentration, K. pneumoniae UMM
# How it was run: as §1
# E. coli AG100A = conditions: Escherichia coli, read-out: Minimum Inhibitory Concentration, E. coli AG100A
# How it was run: as §1
# E. coli ATCC 25922 = conditions: Escherichia coli, ATCC25922; E. coli ATCC 25922; MHB; read-out: Minimum Inhibitory Concentration, E. coli 25922
# How it was run: as §1
smiles,measurement,setting,value
"CCN1CCN(C(=O)NC(C(=O)N[C@H]2Cc3cccc(C(=O)O)c3OB2O)c2c(F)cc(NC(C)=O)cc2F)C(=O)C1=O (stereo partly drawn) [Example 188, (3R)-3-(2-(4-acetamido-2,6-difluorophenyl)-2-(4-ethyl-2,3-dioxopiperazine-1-carboxamido)acetamido)-2-hydroxy-3,4-dihydro-2H-benzo[e][1,2]oxaborinine-8-carboxylic acid]",MIC,E. coli AG100,32 to 64 µg/mL
same,MIC,[1],> 128 µg/mL
same,MIC,[2],32 to 64 µg/mL
same,MIC,P. aeruginosa ATCC 35151,0.5 to 1 µg/mL
same,MIC,[3],> 128 µg/mL
same,MIC,E. coli 901C,< 0.25 µg/mL
same,MIC,A. baumannii ATCC 19606,> 128 µg/mL
same,MIC,P. aeruginosa ATCC 27853,> 128 µg/mL
same,MIC,E. coli D22,2 to 4 µg/mL
same,MIC,[4],32 to 64 µg/mL
same,MIC,E. coli AG100A,2 to 4 µg/mL
same,MIC,E. coli ATCC 25922,32 to 64 µg/mL
"CCN1CCN(C(=O)NC(C(=O)N[C@H]2Cc3cccc(C(=O)O)c3OB2O)c2cc(C#N)c(OC)cc2F)C(=O)C1=O (stereo partly drawn) [Example 192, (3R)-3-(2-(5-cyano-2-fluoro-4-methoxyphenyl)-2-(4-ethyl-2,3-dioxopiperazine-1-carboxamido)acetamido)-2-hydroxy-3,4-dihydro-2H-benzo[e][1,2]oxaborinine-8-carboxylic acid]",MIC,E. coli AG100,> 128 µg/mL
same,MIC,[1],> 128 µg/mL
same,MIC,[2],32 to 64 µg/mL
same,MIC,P. aeruginosa ATCC 35151,2 to 4 µg/mL
same,MIC,[3],> 128 µg/mL
same,MIC,E. coli 901C,2 to 4 µg/mL
same,MIC,A. baumannii ATCC 19606,> 128 µg/mL
same,MIC,P. aeruginosa ATCC 27853,> 128 µg/mL
same,MIC,E. coli D22,32 to 64 µg/mL
same,MIC,[4],> 128 µg/mL
same,MIC,E. coli AG100A,32 to 64 µg/mL
same,MIC,E. coli ATCC 25922,> 128 µg/mL
"O=C(O)c1cccc2c1OB(O)[C@@H](NC(=O)C(NC(=O)N1CCN(CC3CNC3)C(=O)C1=O)c1c(F)cc(O)cc1F)C2 (stereo partly drawn) [Example 193, (3R)-3-(2-(4-(azetidin-3-ylmethyl)-2,3-dioxopiperazine-1-carboxamido)-2-(2,6-difluoro-4-hydroxyphenyl)acetamido)-2-hydroxy-3,4-dihydro-2H-benzo[e][1,2]oxaborinine-8-carboxylic acid]",MIC,E. coli AG100,8 to 16 µg/mL
same,MIC,[1],32 to 64 µg/mL
same,MIC,[2],8 to 16 µg/mL
same,MIC,P. aeruginosa ATCC 35151,0.5 to 1 µg/mL
same,MIC,[3],32 to 64 µg/mL
same,MIC,E. coli 901C,0.5 to 1 µg/mL
same,MIC,A. baumannii ATCC 19606,> 128 µg/mL
same,MIC,P. aeruginosa ATCC 27853,> 128 µg/mL
same,MIC,E. coli D22,2 to 4 µg/mL
same,MIC,[4],8 to 16 µg/mL
same,MIC,E. coli AG100A,0.5 to 1 µg/mL
same,MIC,E. coli ATCC 25922,8 to 16 µg/mL
"CCN1CCN(C(=O)NC(C(=O)N[C@H]2Cc3cccc(C(=O)O)c3OB2O)c2ccc(C(=O)O)c(O)c2)C(=O)C1=O (stereo partly drawn) [Example 196, (3R)-3-(2-(4-carboxy-3-hydroxyphenyl)-2-(4-ethyl-2,3-dioxopiperazine-1-carboxamido)acetamido)-2-hydroxy-3,4-dihydro-2H-benzo[e][1,2]oxaborinine-8-carboxylic acid]",MIC,E. coli AG100,32 to 64 µg/mL
same,MIC,[1],32 to 64 µg/mL
same,MIC,[2],2 to 4 µg/mL
same,MIC,P. aeruginosa ATCC 35151,< 0.25 µg/mL
same,MIC,[3],32 to 64 µg/mL
same,MIC,E. coli 901C,< 0.25 µg/mL
same,MIC,A. baumannii ATCC 19606,> 128 µg/mL
same,MIC,P. aeruginosa ATCC 27853,32 to 64 µg/mL
same,MIC,E. coli D22,0.5 to 1 µg/mL
same,MIC,[4],8 to 16 µg/mL
same,MIC,E. coli AG100A,2 to 4 µg/mL
same,MIC,E. coli ATCC 25922,32 to 64 µg/mL
"CCN1CCN(C(=O)NC(C(=O)N[C@H]2Cc3cccc(C(=O)O)c3OB2O)c2cc(NS(N)(=O)=O)ccc2F)C(=O)C1=O (stereo partly drawn) [Example 197, (3R)-3-(2-(4-ethyl-2,3-dioxopiperazine-1-carboxamido)-2-(2-fluoro-5-(sulfamoylamino)phenyl)acetamido)-2-hydroxy-3,4-dihydro-2H-benzo[e][1,2]oxaborinine-8-carboxylic acid]",MIC,E. coli AG100,8 to 16 µg/mL
same,MIC,[1],> 128 µg/mL
same,MIC,[2],2 to 4 µg/mL
same,MIC,P. aeruginosa ATCC 35151,< 0.25 µg/mL
same,MIC,[3],32 to 64 µg/mL
same,MIC,E. coli 901C,< 0.25 µg/mL
same,MIC,A. baumannii ATCC 19606,32 to 64 µg/mL
same,MIC,P. aeruginosa ATCC 27853,> 128 µg/mL
same,MIC,E. coli D22,0.5 to 1 µg/mL
same,MIC,[4],8 to 16 µg/mL
same,MIC,E. coli AG100A,0.5 to 1 µg/mL
same,MIC,E. coli ATCC 25922,8 to 16 µg/mL
"NS(=O)(=O)Nc1ccc(F)c(C(NC(=O)N2CCN(CCF)C(=O)C2=O)C(=O)N[C@H]2Cc3cccc(C(=O)O)c3OB2O)c1 (stereo partly drawn) [Example 198, (3R)-3-(2-(2-fluoro-5-(sulfamoylamino)phenyl)-2-(4-(2-fluoroethyl)-2,3-dioxopiperazine-1-carboxamido)acetamido)-2-hydroxy-3,4-dihydro-2H-benzo[e][1,2]oxaborinine-8-carboxylic acid]",MIC,E. coli AG100,8 to 16 µg/mL
same,MIC,[1],> 128 µg/mL
same,MIC,[2],2 to 4 µg/mL
same,MIC,P. aeruginosa ATCC 35151,0.5 to 1 µg/mL
same,MIC,[3],32 to 64 µg/mL
same,MIC,E. coli 901C,< 0.25 µg/mL
same,MIC,A. baumannii ATCC 19606,> 128 µg/mL
same,MIC,P. aeruginosa ATCC 27853,> 128 µg/mL
same,MIC,E. coli D22,0.5 to 1 µg/mL
same,MIC,[4],32 to 64 µg/mL
same,MIC,E. coli AG100A,0.5 to 1 µg/mL
same,MIC,E. coli ATCC 25922,8 to 16 µg/mL
"CCN1CCN(C(=O)NC(C(=O)N[C@H]2Cc3cccc(C(=O)O)c3OB2O)c2ccc(C(=O)O)c(Cl)c2Cl)C(=O)C1=O (stereo partly drawn) [Example 201, (3R)-3-(2-(4-carboxy-2,3-dichlorophenyl)-2-(4-ethyl-2,3-dioxopiperazine-1-carboxamido)acetamido)-2-hydroxy-3,4-dihydro-2H-benzo[e][1,2]oxaborinine-8-carboxylic acid]",MIC,E. coli AG100,> 128 µg/mL
same,MIC,[1],> 128 µg/mL
same,MIC,[2],8 to 16 µg/mL
same,MIC,P. aeruginosa ATCC 35151,0.5 to 1 µg/mL
same,MIC,[3],> 128 µg/mL
same,MIC,E. coli 901C,0.5 to 1 µg/mL
same,MIC,A. baumannii ATCC 19606,> 128 µg/mL
same,MIC,P. aeruginosa ATCC 27853,> 128 µg/mL
same,MIC,E. coli D22,2 to 4 µg/mL
same,MIC,[4],> 128 µg/mL
same,MIC,E. coli AG100A,32 to 64 µg/mL
same,MIC,E. coli ATCC 25922,> 128 µg/mL
"CCN1CCN(C(=O)NC(C(=O)N[C@H]2Cc3cccc(C(=O)O)c3OB2O)c2cc(C#N)c(O)cc2F)C(=O)C1=O (stereo partly drawn) [Example 209, (3R)-3-(2-(5-cyano-2-fluoro-4-hydroxyphenyl)-2-(4-ethyl-2,3-dioxopiperazine-1-carboxamido)acetamido)-2-hydroxy-3,4-dihydro-2H-benzo[e][1,2]oxaborinine-8-carboxylic acid]",MIC,E. coli AG100,32 to 64 µg/mL
same,MIC,[1],> 128 µg/mL
same,MIC,[2],8 to 16 µg/mL
same,MIC,P. aeruginosa ATCC 35151,< 0.25 µg/mL
same,MIC,[3],> 128 µg/mL
same,MIC,E. coli 901C,< 0.25 µg/mL
same,MIC,A. baumannii ATCC 19606,> 128 µg/mL
same,MIC,P. aeruginosa ATCC 27853,> 128 µg/mL
same,MIC,E. coli D22,2 to 4 µg/mL
same,MIC,[4],32 to 64 µg/mL
same,MIC,E. coli AG100A,2 to 4 µg/mL
same,MIC,E. coli ATCC 25922,32 to 64 µg/mL
"O=C(O)c1cccc2c1OB(O)[C@@H](NC(=O)C(NC(=O)N1CCN(C3CNC3)C(=O)C1=O)c1c(F)cc(O)cc1F)C2 (stereo partly drawn) [Example 212, (3R)-3-(2-(4-(azetidin-3-yl)-2,3-dioxopiperazine-1-carboxamido)-2-(2,6-difluoro-4-hydroxyphenyl)acetamido)-2-hydroxy-3,4-dihydro-2H-benzo[e][1,2]oxaborinine-8-carboxylic acid]",MIC,E. coli AG100,8 to 16 µg/mL
same,MIC,[1],32 to 64 µg/mL
same,MIC,[2],8 to 16 µg/mL
same,MIC,P. aeruginosa ATCC 35151,0.5 to 1 µg/mL
same,MIC,[3],32 to 64 µg/mL
same,MIC,E. coli 901C,0.5 to 1 µg/mL
same,MIC,A. baumannii ATCC 19606,> 128 µg/mL
same,MIC,P. aeruginosa ATCC 27853,> 128 µg/mL
same,MIC,E. coli D22,2 to 4 µg/mL
same,MIC,[4],8 to 16 µg/mL
same,MIC,E. coli AG100A,2 to 4 µg/mL
same,MIC,E. coli ATCC 25922,8 to 16 µg/mL
